Test results from PubChem BioAssay AID2060610 (Molecular Pharmacology Branch, DTP, NCI, 2025).

System: 616215-338-R-J1-PDC complex spheroids, viability % test/control
Experiment: Anticancer human tumor 616215-338-R-J1-PDC patient-derived colon adenocarcinoma cell line growth inhibition [CLK]
Conditions: for IC50: curve of first compound; for viability, T/C: stronger effect = lower value
How it was run: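 Multi-cell-type spheroids combined patient-derived tumor cells with HUVEC endothelial cells and human mesenchymal stem cells. Paired agents were dosed in half-log steps down from about clinical Cmax, or from 10 microM where Cmax was unknown.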

[1] = second compound 0.0316 µM, first compound 0.0316 µM
[2] = second compound 0.0316 µM, first compound 0.1 µM
[3] = second compound 0.0316 µM, first compound 0.316 µM
[4] = second compound 0.0316 µM, first compound 1 µM
[5] = second compound 0.1 µM, first compound 0.0316 µM
[6] = second compound 0.1 µM, first compound 0.1 µM
[7] = second compound 0.1 µM, first compound 0.316 µM
[8] = second compound 0.1 µM, first compound 1 µM
[9] = second compound 0.316 µM, first compound 0.0316 µM
[10] = second compound 0.316 µM, first compound 0.1 µM
[11] = second compound 0.316 µM, first compound 0.316 µM
[12] = second compound 0.316 µM, first compound 1 µM
[13] = second compound 1 µM, first compound 0.0316 µM
[14] = second compound 1 µM, first compound 0.1 µM
[15] = second compound 1 µM, first compound 0.316 µM
[16] = second compound 1 µM, first compound 1 µM
[17] = second compound 3.16 µM, first compound 0.0316 µM
[18] = second compound 3.16 µM, first compound 0.1 µM
[19] = second compound 3.16 µM, first compound 0.316 µM
[20] = second compound 3.16 µM, first compound 1 µM
[21] = second compound 10 µM, first compound 0.0316 µM
[22] = second compound 10 µM, first compound 0.1 µM
[23] = second compound 10 µM, first compound 0.316 µM
[24] = second compound 10 µM, first compound 1 µM
[25] = second compound 0.0316 µM, first compound 3.16 µM
[26] = second compound 0.0316 µM, first compound 10 µM
[27] = second compound 0.1 µM, first compound 3.16 µM
[28] = second compound 0.1 µM, first compound 10 µM
[29] = second compound 0.316 µM, first compound 3.16 µM
[30] = second compound 0.316 µM, first compound 10 µM
[31] = second compound 1 µM, first compound 3.16 µM
[32] = second compound 1 µM, first compound 10 µM
[33] = second compound 3.16 µM, first compound 3.16 µM
[34] = second compound 3.16 µM, first compound 10 µM
[35] = second compound 10 µM, first compound 3.16 µM
[36] = second compound 10 µM, first compound 10 µM
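Further: spheroids exposed to agents for 7 days.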
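Wherever viability, T/C is given: 100% = DMSO vehicle wells.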

SMILES: CCc1c2c(nc3ccc(O)cc13)-c1cc3c(c(=O)n1C2)COC(=O)[C@]3(O)CC + CNC(=O)c1ccc(Nc2nc(OC3CCCC3)c3c(-c4ccc5nc(C)oc5c4)c[nH]c3n2)c(OC)c1
- IC50 (second compound 0.0316 µM): 13.5 nM
- IC50 (second compound 0.1 µM): 7.31 nM
- IC50 (second compound 0.316 µM): < 3.16 nM
- IC50 (second compound 1 µM): 3.52 nM
- IC50 (second compound 3.16 µM): < 3.16 nM
- IC50 (second compound 10 µM): < 3.16 nM
- viability, T/C (second compound 0.0316 µM, first compound 0.00316 µM): 111%
- viability, T/C (second compound 0.0316 µM, first compound 0.01 µM): 51.1%
- viability, T/C [1]: 35.8%
- viability, T/C [2]: 25.6%
- viability, T/C [3]: 14.6%
- viability, T/C [4]: 9.31%
- viability, T/C (second compound 0.1 µM, first compound 0.00316 µM): 56.9%
- viability, T/C (second compound 0.1 µM, first compound 0.01 µM): 51.3%
- viability, T/C [5]: 27.3%
- viability, T/C [6]: 21.5%
- viability, T/C [7]: 14.6%
- viability, T/C [8]: 5.13%
- viability, T/C (second compound 0.316 µM, first compound 0.00316 µM): 37.9%
- viability, T/C (second compound 0.316 µM, first compound 0.01 µM): 38.9%
- viability, T/C [9]: 24.8%
- viability, T/C [10]: 20.2%
- viability, T/C [11]: 14.6%
- viability, T/C [12]: 1.77%
- viability, T/C (second compound 1 µM, first compound 0.00316 µM): 53.5%
- viability, T/C (second compound 1 µM, first compound 0.01 µM): 28.5%
- viability, T/C [13]: 18.4%
- viability, T/C [14]: 17.2%
- viability, T/C [15]: 11.8%
- viability, T/C [16]: 1.4%
- viability, T/C (second compound 3.16 µM, first compound 0.00316 µM): 37%
- viability, T/C (second compound 3.16 µM, first compound 0.01 µM): 27.3%
- viability, T/C [17]: 17.1%
- viability, T/C [18]: 14.9%
- viability, T/C [19]: 11.8%
- viability, T/C [20]: 2.58%
- viability, T/C (second compound 10 µM, first compound 0.00316 µM): 40.6%
- viability, T/C (second compound 10 µM, first compound 0.01 µM): 25.2%
- viability, T/C [21]: 18.5%
- viability, T/C [22]: 17.3%
- viability, T/C [23]: 11.6%
- viability, T/C [24]: 1.03%

SMILES: Nc1ccccc1NC(=O)c1ccc(CNC(=O)OCc2cccnc2)cc1 + CNC(=O)c1ccc(Nc2nc(OC3CCCC3)c3c(-c4ccc5nc(C)oc5c4)c[nH]c3n2)c(OC)c1
- IC50 (second compound 0.0316 µM): 5080 nM
- IC50 (second compound 0.1 µM): 85 nM
- IC50 (second compound 0.316 µM): < 31.6 nM
- IC50 (second compound 1 µM): < 31.6 nM
- IC50 (second compound 3.16 µM): < 31.6 nM
- IC50 (second compound 10 µM): < 31.6 nM
- viability, T/C [1]: 86.2%
- viability, T/C [2]: 82%
- viability, T/C [3]: 80.2%
- viability, T/C [4]: 96.7%
- viability, T/C [25]: 72.5%
- viability, T/C [26]: 17.7%
- viability, T/C [5]: 56.1%
- viability, T/C [6]: 48.9%
- viability, T/C [7]: 37.3%
- viability, T/C [8]: 36.1%
- viability, T/C [27]: 36.7%
- viability, T/C [28]: 10.6%
- viability, T/C [9]: 40.7%
- viability, T/C [10]: 39.4%
- viability, T/C [11]: 35.9%
- viability, T/C [12]: 34%
- viability, T/C [29]: 29.3%
- viability, T/C [30]: 7.21%
- viability, T/C [13]: 42.7%
- viability, T/C [14]: 36.7%
- viability, T/C [15]: 32.8%
- viability, T/C [16]: 29.1%
- viability, T/C [31]: 24.8%
- viability, T/C [32]: 6.92%
- viability, T/C [17]: 35.1%
- viability, T/C [18]: 35.8%
- viability, T/C [19]: 28.5%
- viability, T/C [20]: 26.9%
- viability, T/C [33]: 22.7%
- viability, T/C [34]: 3.91%
- viability, T/C [21]: 34.3%
- viability, T/C [22]: 30.8%
- viability, T/C [23]: 28%
- viability, T/C [24]: 24%
- viability, T/C [35]: 23.8%
- viability, T/C [36]: 3.95%

SMILES: CC(CO)NC(=O)c1cc(-c2ccc(Cl)cc2)nn(-c2cnn(C)c2)c1=O (stereo unspecified) + CN1CCN(c2cc(C(=O)Nc3cc4cc(-c5cnn(C)c5)ccc4cn3)ccn2)CC1
- IC50 (second compound 0.0316 µM): > 10000 nM
- IC50 (second compound 0.1 µM): > 10000 nM
- IC50 (second compound 0.316 µM): < 31.6 nM
- IC50 (second compound 1 µM): < 31.6 nM
- IC50 (second compound 3.16 µM): < 31.6 nM
- IC50 (second compound 10 µM): < 31.6 nM
- viability, T/C [1]: 104%
- viability, T/C [2]: 89.5%
- viability, T/C [3]: 91.5%
- viability, T/C [4]: 91.6%
- viability, T/C [25]: 93%
- viability, T/C [26]: 100%
- viability, T/C [5]: 94.7%
- viability, T/C [6]: 108%
- viability, T/C [7]: 90.6%
- viability, T/C [8]: 93.6%
- viability, T/C [27]: 97.3%
- viability, T/C [28]: 85.7%
- viability, T/C [9]: 31.3%
- viability, T/C [10]: 41.5%
- viability, T/C [11]: 26.3%
- viability, T/C [12]: 27.7%
- viability, T/C [29]: 33.1%
- viability, T/C [30]: 32.4%
- viability, T/C [13]: 0.18%
- viability, T/C [14]: 0.19%
- viability, T/C [15]: 0.23%
- viability, T/C [16]: 0.14%
- viability, T/C [31]: 0.57%
- viability, T/C [32]: 1.49%
- viability, T/C [17]: 0.15%
- viability, T/C [18]: 0.42%
- viability, T/C [19]: 0.16%
- viability, T/C [20]: 1.94%
- viability, T/C [33]: 2.32%
- viability, T/C [34]: 0.14%
- viability, T/C [21]: 1.31%
- viability, T/C [22]: 0.25%
- viability, T/C [23]: 0.22%
- viability, T/C [24]: 0.24%
- viability, T/C [35]: 1.28%
- viability, T/C [36]: 0.23%
